From US20260023070A1, “OPTOGENETIC ALPHA-SYNUCLEIN AGGREGATION SYSTEM-BASED COMPOUND SCREENING PLATFORM IN PD-hiPSC-mDA NEURONS” (The Johns Hopkins University, priority 2022, published 2026)

Assays:
opto-α-syn SH-SY5Y cells = assay: OASIS-based high-content imaging assay of light-induced α-syn aggregation (5G4 staining, Aggregates Induction Score); type: cell-based, human
Experimental: The opto-α-syn expressing SH-SY5Y cells were seeded in 96-well black flat bottom imaging microplates (Falcon) at 30,000 cells per well in 100 μL of complete media using E1-ClipTip electronic multichannel pipette (Thermo Fisher Scientific) and incubated in 37° C. and 5% CO2 humidified incubator. After 18 h of incubation, 10 μL of 10 μM compounds (column 2 to 10) or 1% DMSO (column 1 and 12) were added (final concentration of DMSO is 0.1%). In order to induce aggregations, the plates were illuminated with blue light (26 μW/mm^2) on customized blue light illumination 96-well plates for 2 h. Afterward, cells were fixed in 4% paraformaldehyde (PFA) for 15 min and stained with the aggregated-α-syn antibody (5G4) after permeabilization with 0.1% Triton X-100/0.5% BSA/PBS solution. […] To analyze images, the automated aggregation quantification algorithm and cell counting algorithm in the form of macro are developed using ImageJ software. Briefly, the algorithm includes the inversion, subtracting background, threshold selection, analyzing particles with ranged size and circularity. The Aggregates Induction Score (AIS) is calculated using, the following equation: […]
where N^agg is the number of aggregates, ^Ntotal is the number of total cells. The AIS in each well is normalized by the AIS in positive control which is set as 1.0. […] The hit selection strategy was based on calculated AIS; hits were defined as AIS<0.5. […] Two independent experiments were performed, and total 10 images per well are analyzed to calculate AIS.
As illustrated in FIGS. 8A-8E, high-content imaging screening with the optogenetic α-syn aggregation system was performed, following the schematic representation of the process of high-content imaging (HCI) screening with optogenetics-assisted method of alpha-synuclein aggregation induction system (OASIS) (FIG. 8A). SH-SY5Y cells expressing opto-α-syn were in dark or exposed to blue light (26 μW/mm^2 at 470 nm, 1 Hz, 1 s) for 1.5 h under 96-well plate culture conditions, and then immunostained with 5G4 antibody. The equation of Aggregates Induction Score (AIS) (FIG. 8B) was used for the calculation of Z′-factor for HCI screening with OASIS (FIG. 8C). […] Arrow represents the degree of separation (Z′-factor) between light-illuminated and darkness controls. […] Detailed information of numbered compounds was described in Table 1. One-way ANOVA followed by Dunnett's post hoc test (n=10 or 20, 5 or 10 images each from two independent experiments). *P<0.05, **P<0.01, ***P<0.001, ****P<0.0001.
As illustrated in FIGS. 9A-9B, high-content imaging screening with the optogenetic α-syn aggregation system was performed. The measurement of 5G4^+ aggregates in opto-mock or opto-α-syn SH-SY5Y neuronal cells was assessed. Cells were in dark or exposed to blue light (26 μW/mm^2 at 470 nm, 1 Hz, 1 s) for 1.5 h, and then immunostained with 5G4 antibody. […] Images were converted to grayscale, and a threshold was adjusted to exclude the background based on the size of particles. Once the value of threshold was determined, all the images were applied with the fixed threshold, and then the number of aggregates was measured (FIG. 9A). Number of DAPI from the original images were counted (FIG. 9B). Representative images of opto-α-syn SH-SY5Y neuronal cells treated with 19 compounds under 24-well plate culture conditions were imaged. SH-SY5Y cells expressing opto-α-syn were in dark or exposed to blue light (34 μW/mm^2 at 470 nm, 1 Hz, 0.5 s) for 1.5 h, and then immunostained with 5G4 antibody.

[1] = test system: blue light-illuminated opto-α-syn-mDA neurons; assay: Autophagy and aggregate clearance in blue light-illuminated opto-α-syn-mDA neurons; type: cell-based, human
Experimental: Because autophagy can be activated by the inhibition of PI 3-kinase (PI3K) or the PDK1 pathway, it was tested whether treatment with BAG 956 can induce the autophagic flux to decrease α-syn aggregates in opto-α-syn mDA neurons and MOs.

[2] = blue light-illuminated opto-α-syn-mDA neurons
[3] = mDA neurons exposed to blue light

SMILES: Cc1nc2cnc3ccc(C#Cc4cccnc4)cc3c2n1-c1ccc(C(C)(C)C#N)cc1 [BAG 956]
- AIS compared to blue light-illuminated DMSO control (opto-α-syn SH-SY5Y cells; two independent experiments, 24-well culture conditions, blue light stimulation): significant decrease
- AIS, aggregates induction score (opto-α-syn SH-SY5Y cells; validation of 19 hits, 24-well plates, blue light, AIS normalized to positive control (blue light, DMSO) set as 1.0): 0.34
- LC-311 induction compared with BYL719 (alpelisib) or BAY 80-6946 (copanlisib) [1, 2]: more potent
- level of LC-311 [1, 2]: increased
- LC3+/5G4+ co-localized vesicles [1, 3]: increased number
- number of LC3+ puncta [1, 3]: increased number
